These results are taken from ChEMBL document CHEMBL5113517, “Structure-Based Design, Optimization, and Evaluation of Potent Stabilized Peptide Inhibitors Disrupting MTDH and SND1 Interaction” (J Med Chem, 2022).

Activity calls are given as the source filed them. The rule behind the calls is not given here. Peptide text beside a SMILES is read from it.

The subject of data set [1] is MDA-MB-231. Briefly: Cell cycle arrest in human MDA-MB-231 cells assessed as accumulation at G2/M phase at 100 uM measured after 48 hrs by flow cytometric analysis flow cytometry analysis (reference value: 16.38 %). In kind it is functional.
Data set [2] has as its system MDA-MB-231. Description: Cell cycle arrest in human MDA-MB-231 cells assessed as accumulation at G0/G1 phase at 50 uM measured after 48 hrs by flow cytometric analysis flow cytometry analysis (reference value: 58.28 %). Type of data set: functional.
In data set [3] the test system is MDA-MB-231. Description: Inhibition of cell migration in human MDA-MB-231 cells measured after 24 to 48 hrs by wound healing assay. Type of data set: functional, cell-based. The following applies: time 24-48 hrs.
In data set [4] the test system is MDA-MB-231. Briefly: Antiproliferative activity against human MDA-MB-231 cells assessed as growth inhibition at 100 uM in presence of paclitaxel. In kind it is functional, cell-based.
Data set [5] has as its system MDA-MB-468. Description: Cytotoxicity against human MDA-MB-468 cells assessed as reduction in cell viability incubated for 72 hrs by CCK8 assay. In kind it is functional, cell-based.
The subject of data set [6] is MDA-MB-231. Briefly: Cell cycle arrest in human MDA-MB-231 cells assessed as accumulation at G2/M phase at 50 uM measured after 48 hrs by flow cytometric analysis flow cytometry analysis (reference value: 15.84 %). Type of data set: functional.
Data set [7] can be described thus: Toxicity in mouse RBC assessed as induction of hemolysis at 200 uM measured after 1 hr by microplate reader assay. Type of data set: cell-based. The following applies: erythrocyte.
The subject of data set [8] is MDA-MB-468. Briefly: Cytotoxicity against human MDA-MB-468 cells assessed as reduction in cell viability at 6.25 to 200 uM incubated for 72 hrs by CCK8 assay. In kind it is functional, cell-based. The conditions noted are these: dose 6.25-200 µM.
Data set [9] can be described thus: Drug uptake in human MDA-MB-231 cells assessed as increase in colocalization at 10 uM by confocal microscopy. In kind it is ADME, cell-based. The conditions noted are these: mda-mb-231, 10 µM.
In data set [10] the test system is MDA-MB-231. Description: Cell cycle arrest in human MDA-MB-231 cells assessed as accumulation at G0/G1 phase at 100 uM measured after 48 hrs by propidium iodide based flow cytometry analysis (reference value: 57.81 %). Type of data set: functional.
Data set [11] concerns MDA-MB-231. Description: Cytotoxicity against human MDA-MB-231 cells assessed as reduction in cell viability at 100 uM incubated for 72 hrs by CCK8 assay. In kind it is functional.
The nature of data set [12]: Stability of the compound in mouse serum measured after 3 to 7 days by HPLC analysis. Type of data set: ADME, cell-free. The conditions noted are these: time 3-7 day.
The next data set is filed under the species Homo sapiens. Briefly: Inhibition of GST-tagged MTDH (364 ro 582 residues)/His-tagged SND1 (16 to 339 residues) (unknown origin) interaction measured after 12 hrs by pull down assay.
Data set [13] can be described thus: Binding affinity to MTDH /His-SND1 (unknown origin) expressed in Escherichia coli BL21(DE3) assessed as dissociation constant by fluorescence polarization assay. On the set-up: species or system Homo sapiens.
The subject of data set [14] is MDA-MB-231. Briefly: Cytotoxicity against human MDA-MB-231 cells assessed as reduction in cell viability incubated for 72 hrs by CCK8 assay. Type of data set: functional, cell-based.
Data set [15] concerns MDA-MB-231. Description: Cytotoxicity against human MDA-MB-231 cells assessed as reduction in cell viability at 6.25 to 200 uM incubated for 72 hrs by CCK8 assay. In kind it is functional, cell-based. The following applies: dose 6.25-200 µM.
The subject of data set [16] is MDA-MB-231. Description: Cell cycle arrest in human MDA-MB-231 cells assessed as accumulation at S phase at 100 uM measured after 48 hrs by flow cytometric analysis flow cytometry analysis (reference value: 25.81%). Type of data set: functional.
The next data set deals with MCF-10A. Description: Cytotoxicity against human MCF-10A cells assessed as reduction in cell viability at 6.25 to 200 uM incubated for 72 hrs by CCK8 assay. In kind it is toxicity, cell-based. The conditions noted are these: dose 6.25-200 µM.
Data set [17] can be described thus: Drug uptake in human MDA-MB-231 cells assessed as increase in cell penetration at 10 uM incubated for 12 hrs by flow cytometry method. In kind it is ADME, cell-based. The following applies: mda-mb-231, 12 h.
Data set [18] deals with MDA-MB-231. Briefly: Cell cycle arrest in human MDA-MB-231 cells assessed as accumulation at S phase at 50 uM measured after 48 hrs by flow cytometric analysis flow cytometry analysis (reference value: 25.88%). Type of data set: functional.
Data set [19] relates to MDA-MB-231. Description: Inhibition of GST-tagged MTDH (364 ro 582 residues)/His-tagged SND1 (16 to 339 residues) interaction in human MDA-MB-231 cells measured after 12 hrs by co-immunoprecipitation assay. In kind it is cell-based.

With `CC(C)[C@H](NC(=O)[C@H](Cc1c[nH]c2ccccc12)NC(=O)[C@H](CC(N)=O)NC(=O)CNC(=O)[C@H](Cc1c[nH]c2ccccc12)NC(=O)[C@H](CCC(=O)O)NC(=O)[C@H](CCC(=O)O)NC(=O)[C@@H]1CNC(=O)[C@@H](NC(=O)[C@H](Cc2c[nH]c3ccccc23)NC(=O)[C@@H](N)CC(=O)O)CC(=O)N[C@@H](C)C(=O)N2CCC[C@H]2C(=O)N1)C(=O)N[C@@H](CC(=O)O)C(=O)N[C@@H](CCC(=O)O)C(N)=O`, the Activity is given as 10.12% with MDA-MB-231 [1]; 69.94% with MDA-MB-231 [2]; 11.55% in the data set with MDA-MB-231 [6]; “Non-Toxic” in data set [7]; 81.56% in the data set on MDA-MB-231 [10]; 60% in the data set on MDA-MB-231 [11]. Moreover, the figures for the Activity in the data set with MDA-MB-231 [16], in the data set on MCF-10A and in the data set with MDA-MB-231 [18] were 8.32%, “Non-Toxic” and 18.5%, respectively. Also, the inhibition result in the data set on MDA-MB-231 [3], in the data set filed under Homo sapiens and in the data set with MDA-MB-231 [19] was “Active” throughout. Also, the outcome in the data set with MDA-MB-231 [4], in the data set on MDA-MB-468 [5], in the data set on MDA-MB-468 [8], in the data set on MDA-MB-231 [14] and in the data set with MDA-MB-231 [15] was Active. Further, the Drug uptake entry in data set [9] and in data set [17] was “Active” throughout. Besides, the Stability entry in data set [12] is recorded as “Stable”. The Kd in [13] was 74.1 nM.
Regarding `CC(C)[C@H](NC(=O)[C@H](Cc1c[nH]c2ccccc12)NC(=O)[C@H](CC(N)=O)NC(=O)CNC(=O)[C@H](Cc1c[nH]c2ccccc12)NC(=O)[C@H](CCC(=O)O)NC(=O)[C@H](CCC(=O)O)NC(=O)[C@H](C)NC(=O)[C@@H]1CCCN1C(=O)[C@H](C)NC(=O)[C@H](CC(N)=O)NC(=O)[C@H](Cc1c[nH]c2ccccc12)NC(=O)[C@@H](N)CC(=O)O)C(=O)N[C@@H](CC(=O)O)C(=O)N[C@@H](CCC(=O)O)C(=O)O` (H-DWNAPAEEWGNWVDE-OH), the Activity came out at 15.55% in the data set on MDA-MB-231 [1]; 60.42% in the data set with MDA-MB-231 [2]; 16.7% in the data set on MDA-MB-231 [6]; 61.79% in the data set with MDA-MB-231 [10]; 22.66% with MDA-MB-231 [16]; 22.86% in the data set with MDA-MB-231 [18]. Moreover, the Drug uptake result in data set [9] and in data set [17] was “Active” throughout. Further, the dissociation constant Kd in data set [13] is 56.5 nM.
